# Measured values: ChEMBL document CHEMBL1201862, “PubChem BioAssay data set” (2004)
#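 Results reflect a 48-hour exposure of cells in 96-well plates to compound at five concentrations. GI50: concentration for 50% inhibition of growth.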 Active and inactive are the calls of the source. Cut-off read from the data, not from the text of the source: active = GI50 up to about 1.1 µM and inactive = higher.
# Key:
# Test in all cases: inhibition of tumour cell growth, NCI panel, 48 h
# 786-0 = system: 786-0
# A498 = system: A498
# A549 = system: A549
# ACHN = system: ACHN
# BT-549 = system: BT-549
# CAKI-1 = system: CAKI-1
# CCRF-CEM = system: CCRF-CEM
# COLO 205 = system: COLO 205
# DU-145 = system: DU-145
# EKVX = system: EKVX
# HCC 2998 = system: HCC 2998
# HCT-116 = system: HCT-116
# HCT-15 = system: HCT-15
# HL-60 = system: HL-60
# HOP-62 = system: HOP-62
# HOP-92 = system: HOP-92
# HT-29 = system: HT-29
# Hs-578T = system: Hs-578T
# IGROV-1 = system: IGROV-1
# K562 = system: K562
# KM12 = system: KM12
# LOX IMVI = system: LOX IMVI
# M14 = system: M14
# MCF7 = system: MCF7
# MDA-MB-231 = system: MDA-MB-231
# MDA-MB-435 = system: MDA-MB-435
# MDA-N = system: MDA-N
# MOLT-4 = system: MOLT-4
# Malme-3M = system: Malme-3M
# NCI-H226 = system: NCI-H226
# NCI-H23 = system: NCI-H23
# NCI-H460 = system: NCI-H460
# NCI-H522 = system: NCI-H522
# NCI/ADR-RES = system: NCI/ADR-RES
# OVCAR-3 = system: OVCAR-3
# OVCAR-4 = system: OVCAR-4
# OVCAR-5 = system: OVCAR-5
# OVCAR-8 = system: OVCAR-8
# PC-3 = system: PC-3
# RPMI-8226 = system: RPMI-8226
# RXF 393 = system: RXF 393
# SF-268 = system: SF-268
# SF-295 = system: SF-295
# SK-MEL-28 = system: SK-MEL-28
# SK-MEL-2 = system: SK-MEL-2
# SK-MEL-5 = system: SK-MEL-5
# SK-OV-3 = system: SK-OV-3
# SN12C = system: SN12C
# SNB-19 = system: SNB-19
# SNB-75 = system: SNB-75
# SW-620 = system: SW-620
# T47D = system: T47D
# TK-10 = system: TK-10
# U-251 = system: U-251
# UACC-257 = system: UACC-257
# UACC-62 = system: UACC-62
# UO-31 = system: UO-31
# SF-539 = system: SF-539
compound,measurement,setting,value
CC(C)(C)CN1[C@@H]2CCCC[C@H]2N(CC(C)(C)C)P1(=O)C(O)/C=C/c1ccccc1 (stereo partly drawn),GI50,786-0,39.4 µM (inactive)
same,GI50,A498,28.6 µM (inactive)
same,GI50,A549,25.1 µM (inactive)
same,GI50,ACHN,28.9 µM (inactive)
same,GI50,BT-549,74.1 µM (inactive)
same,GI50,CAKI-1,59.8 µM (inactive)
same,GI50,CCRF-CEM,34.3 µM (inactive)
same,GI50,COLO 205,17.3 µM (inactive)
same,GI50,DU-145,58.1 µM (inactive)
same,GI50,EKVX,50.1 µM (inactive)
same,GI50,HCC 2998,28.5 µM (inactive)
same,GI50,HCT-116,29.8 µM (inactive)
same,GI50,HCT-15,18.5 µM
same,GI50,HL-60,32 µM (inactive)
same,GI50,HOP-62,50.2 µM (inactive)
same,GI50,HOP-92,28.8 µM (inactive)
same,GI50,HT-29,31.5 µM (inactive)
same,GI50,Hs-578T,29.9 µM (inactive)
same,GI50,IGROV-1,25.6 µM (inactive)
same,GI50,K562,42.6 µM (inactive)
same,GI50,KM12,33.7 µM (inactive)
same,GI50,LOX IMVI,18.7 µM (inactive)
same,GI50,M14,27.1 µM (inactive)
same,GI50,MCF7,28.6 µM (inactive)
same,GI50,MDA-MB-231,45.9 µM (inactive)
same,GI50,MDA-MB-435,42.1 µM (inactive)
same,GI50,MDA-N,35.3 µM (inactive)
same,GI50,MOLT-4,35.5 µM (inactive)
same,GI50,Malme-3M,38.5 µM (inactive)
same,GI50,NCI-H226,22.7 µM (inactive)
same,GI50,NCI-H23,56.6 µM (inactive)
same,GI50,NCI-H460,26.2 µM (inactive)
same,GI50,NCI-H522,26.7 µM (inactive)
same,GI50,NCI/ADR-RES,32.7 µM (inactive)
same,GI50,OVCAR-3,34.6 µM (inactive)
same,GI50,OVCAR-4,45.4 µM (inactive)
same,GI50,OVCAR-5,50.4 µM (inactive)
same,GI50,OVCAR-8,62.5 µM (inactive)
same,GI50,PC-3,37.8 µM (inactive)
same,GI50,RPMI-8226,19.5 µM (inactive)
same,GI50,RXF 393,30.3 µM (inactive)
same,GI50,SF-268,39 µM (inactive)
same,GI50,SF-295,29.7 µM (inactive)
same,GI50,SK-MEL-28,76.7 µM (inactive)
same,GI50,SK-MEL-2,33.3 µM (inactive)
same,GI50,SK-MEL-5,18.3 µM (inactive)
same,GI50,SK-OV-3,51.8 µM (inactive)
same,GI50,SN12C,22.2 µM (inactive)
same,GI50,SNB-19,26.8 µM (inactive)
same,GI50,SNB-75,21.3 µM (inactive)
same,GI50,SW-620,34.2 µM (inactive)
same,GI50,T47D,26.1 µM (inactive)
same,GI50,TK-10,50.4 µM (inactive)
same,GI50,U-251,41.4 µM (inactive)
same,GI50,UACC-257,30.1 µM (inactive)
same,GI50,UACC-62,35.2 µM (inactive)
same,GI50,UO-31,29.5 µM (inactive)
CC/C=N\N1C(N)=C(C#N)C(C#N)(C#N)C1CC (stereo not drawn),GI50,786-0,> 100 µM (inactive)
same,GI50,A498,> 100 µM (inactive)
same,GI50,A549,> 100 µM (inactive)
same,GI50,ACHN,> 100 µM (inactive)
same,GI50,BT-549,> 100 µM (inactive)
same,GI50,CAKI-1,> 100 µM (inactive)
same,GI50,CCRF-CEM,36.1 µM (inactive)
same,GI50,COLO 205,> 100 µM (inactive)
same,GI50,DU-145,> 100 µM (inactive)
same,GI50,EKVX,> 100 µM (inactive)
same,GI50,HCC 2998,> 100 µM (inactive)
same,GI50,HCT-116,10.8 µM (inactive)
same,GI50,HCT-15,54.2 µM
same,GI50,HL-60,35.8 µM (inactive)
same,GI50,HOP-62,> 100 µM (inactive)
same,GI50,HT-29,28.8 µM (inactive)
same,GI50,Hs-578T,> 100 µM (inactive)
same,GI50,IGROV-1,63.1 µM (inactive)
same,GI50,K562,52.7 µM (inactive)
same,GI50,KM12,> 100 µM (inactive)
same,GI50,LOX IMVI,49 µM (inactive)
same,GI50,M14,> 100 µM (inactive)
same,GI50,MCF7,36.5 µM (inactive)
same,GI50,MDA-MB-231,> 100 µM (inactive)
same,GI50,MDA-MB-435,50.6 µM (inactive)
same,GI50,MDA-N,53.5 µM (inactive)
same,GI50,MOLT-4,39 µM (inactive)
same,GI50,Malme-3M,> 100 µM (inactive)
same,GI50,NCI-H226,> 100 µM (inactive)
same,GI50,NCI-H23,> 100 µM (inactive)
same,GI50,NCI-H522,> 100 µM (inactive)
same,GI50,NCI/ADR-RES,92 µM (inactive)
same,GI50,OVCAR-3,> 100 µM (inactive)
same,GI50,OVCAR-4,91.2 µM (inactive)
same,GI50,OVCAR-5,> 100 µM (inactive)
same,GI50,OVCAR-8,44.9 µM (inactive)
same,GI50,PC-3,> 100 µM (inactive)
same,GI50,RPMI-8226,83 µM (inactive)
same,GI50,RXF 393,> 100 µM (inactive)
same,GI50,SF-268,> 100 µM (inactive)
same,GI50,SF-295,> 100 µM (inactive)
same,GI50,SF-539,26.2 µM (inactive)
same,GI50,SK-MEL-28,56.2 µM (inactive)
same,GI50,SK-MEL-2,> 100 µM (inactive)
same,GI50,SK-MEL-5,53.1 µM (inactive)
same,GI50,SK-OV-3,> 100 µM (inactive)
same,GI50,SN12C,> 100 µM (inactive)
same,GI50,SNB-19,> 100 µM (inactive)
same,GI50,SNB-75,81.8 µM (inactive)
same,GI50,SW-620,61.7 µM (inactive)
same,GI50,T47D,> 100 µM (inactive)
same,GI50,TK-10,> 100 µM (inactive)
same,GI50,U-251,58.6 µM (inactive)
same,GI50,UACC-257,> 100 µM (inactive)
same,GI50,UACC-62,59.4 µM (inactive)
same,GI50,UO-31,> 100 µM (inactive)
